This is an account of results in publication PMC6541369, “Stereo- and regioselective hydroboration of 1-exo-methylene pyranoses: discovery of aryltriazolylmethyl C-galactopyranosides as selective galectin-1 inhibitors” (Beilstein Journal of Organic Chemistry, 2019).

Several values for one entry are separate records, joined by “and”; a condition that tells them apart may be missing. Equal entries are not always repeated. Where two headings read alike, the source gives them in different places. Some results are limits rather than exact numbers.

Test [1] concerns the target T1, Human galectin-1 (Homo sapiens, UniProt P09382).
T1 construct: made in house
The test can be described thus: competitive fluorescence polarization assay, galectin-1. Type of test: binding. Conditions: for Kd: galectin-1 0.5 µM, fluorescent probe 20 nM, read-out: Dissociation constant KD ± SEM, galectin-1. The method, then:
Galectin-1, -3, -4C (C-terminal CRD), -4N (N-terminal CRD), -7, -8C, -8N, -9C, and -9N affinities for (aryltriazolyl)methyl galactopyranosyls 1a–n were determined in a competitive fluorescence polarization titration assay [[…]].
(§1) Human galectin-1 [36] and galectin-3 [37] were expressed and purified as earlier described. Fluorescence polarization experiments were performed on a PheraStarFS plate reader with software PHERAstar Mars version 2.10 R3 (BMG, Offenburg, Germany). Specific experimental conditions were a galectin-1 concentration of 0.5 µM together with the fluorescent probe (3,3’-dideoxy-3-[4-(fluorescein-5-ylcarbonylaminomethyl)-1H-1,2,3-triazol-1-yl]-3’-(3,5-dimethoxybenzamido)-1,1’-sulfanediyl-di-β-D-galactopyranoside) concentration of 20 nM and a galectin-3 concentration of 0.2 µM together with the fluorescent probe (3,3’-dideoxy-3-[4-(fluorescein-5-ylcarbonylaminomethyl)-1H-1,2,3-triazol-1-yl]-3’-(3,5-dimethoxybenzamido)-1,1’-sulfanediyl-di-β-D-galactopyranoside) concentration of 20 nM, respectively. […] Dissociation constants average and SEM were calculated from two to eight single point measurements showing between 20–80% inhibition.
On the technique in general: Polarisation of emitted light reports the rotation of a fluorescent probe.

Test [2] addresses T2, galectin-3 (Homo sapiens, UniProt P17931).
T2 construct: made in house
The test can be described thus: competitive fluorescence polarization assay, galectin-3. Type of test: binding. Conditions: galectin-3 0.2 µM, fluorescent probe 20 nM; for Kd: read-out: Dissociation constant KD ± SEM, galectin-3. Here is the method: Galectin-1, -3, -4C (C-terminal CRD), -4N (N-terminal CRD), -7, -8C, -8N, -9C, and -9N affinities for (aryltriazolyl)methyl galactopyranosyls 1a–n were determined in a competitive fluorescence polarization titration assay [[…]]. Compounds 1a–n had millimolar or higher affinities for all galectins except for galectins-1 and -3. […] Of particular interest is the different difluorinated aryls 1e–g, which show a reversed selectivity pattern. They display twofold preference for galectin-3 (1g), but their poor affinities limit their use as effective galectin-3 inhibitors. […] Monosaccharide derivatives with somewhat higher affinity for galectin-1 are known; dissociation constants down to 62 µM and selectivity of 8 over galectin-3 [34]. However, these inhibitors are larger and carry double modifications with an anomeric thiophenyl aglycon combined with a heteroaryltriazole moiety at galactose C3 that both form affinity and selectivity-enhancing interactions with galectin-1. Unfortunately, attempts to combine the anomeric 4-fluorophenyltriazolylmethyl moiety of compound 1b with such a galactose C3-thiazolyltriazole substituent reported to enhance affinity for galectin-1 [34] failed in our hands, why other additional substituents to combine with the 4-fluorophenyltriazolylmethyl moiety of compound 1b remain to be discovered.
as §1

The target of test [3] is T1, Human galectin-1. On the set-up: method as in PMID 15889175. Conditions: reference compounds; read-out: Dissociation constant KD, galectin-1; cited from earlier work.
Test [4] has as its target T2, galectin-3. Set-up: method as in PMID 15889175. Conditions: reference compounds; read-out: Dissociation constant KD, galectin-3; cited from earlier work.
Where [5] appears, read: ratio of galectin-3 KD to galectin-1 KD.

T2 sequence (P17931 whole entry): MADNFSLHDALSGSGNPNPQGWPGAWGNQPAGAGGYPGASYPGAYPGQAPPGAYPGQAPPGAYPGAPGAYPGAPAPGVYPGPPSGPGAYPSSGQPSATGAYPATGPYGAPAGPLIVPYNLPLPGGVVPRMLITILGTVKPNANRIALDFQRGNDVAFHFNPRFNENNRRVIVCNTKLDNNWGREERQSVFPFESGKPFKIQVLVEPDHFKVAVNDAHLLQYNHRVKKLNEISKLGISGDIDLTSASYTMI
T1 sequence (P09382 whole entry): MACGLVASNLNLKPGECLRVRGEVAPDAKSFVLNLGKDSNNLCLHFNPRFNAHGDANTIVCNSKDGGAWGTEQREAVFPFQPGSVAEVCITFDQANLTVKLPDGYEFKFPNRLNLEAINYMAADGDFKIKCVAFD

As to `OC[C@H]1O[C@@H](Cn2cc(-c3ccc(-c4ccccc4)cc3)nn2)[C@H](O)[C@@H](O)[C@H]1O` [1m, 1,2-Dideoxy-1-[4-(4-biphenyl)-1H-1,2,3-triazol-1-yl]-β-D-galactoheptulose], the results for the equilibrium dissociation constant (Kd) at Human galectin-1 [1] and at galectin-3 [2] were 710 ± 12 µM and 1200 ± 11 µM, respectively. Moreover, the “Selectivity Galectin-1/3” value at Human galectin-1 [1] (setting [5]) turned out to be 1.7.
For `OC[C@H]1O[C@H](Cn2cc(-c3ccc(F)cc3F)nn2)[C@H](O)[C@@H](O)[C@H]1O` [1g, 1,2-Dideoxy-1-[4-(2,4-difluorophenyl)-1H-1,2,3-triazol-1-yl]-β-D-galactoheptulose], in that order: 1100 ± 16 µM, 490 ± 55 µM and 0.4.
For `OC[C@H]1O[C@H](Cn2cc(-c3ccc(F)c(F)c3)nn2)[C@H](O)[C@@H](O)[C@H]1O` [1e, 1,2-Dideoxy-1-[4-(3,4-difluorophenyl)-1H-1,2,3-triazol-1-yl]-β-D-galactoheptulose], the Kd (usually the constant that tells how readily two partners part at equilibrium) at Human galectin-1 [1] stood at 860 ± 150 µM; at galectin-3 [2], 610 ± 160 µM. Further, on Human galectin-1 [1] (setting [5]), the “Selectivity Galectin-1/3” value is 0.7.
Take `OC[C@H]1O[C@H](Cn2cc(-c3cc(F)cc(F)c3)nn2)[C@H](O)[C@@H](O)[C@H]1O` [1f, 1,2-Dideoxy-1-[4-(3,5-difluorophenyl)-1H-1,2,3-triazol-1-yl]-β-D-galactoheptulose]: the Kd at Human galectin-1 [1] was 1100 ± 43 µM; at galectin-3 [2], 790 ± 48 µM. The “Selectivity Galectin-1/3” value on Human galectin-1 [1] (setting [5]) stood at 0.7.
For `OC[C@H]1O[C@H](Cn2cc(-c3ccc(OC(F)(F)F)cc3)nn2)[C@H](O)[C@@H](O)[C@H]1O` [1j, 1,2-Dideoxy-1-[4-(4-trifluoromethoxyphenyl)-1H-1,2,3-triazol-1-yl]-β-D-galactoheptulose], in that order: 500 ± 59 µM, 700 ± 52 µM and 1.4.
With `OC[C@H]1O[C@H](Cn2cc(-c3ccccc3F)nn2)[C@H](O)[C@@H](O)[C@H]1O` [1d, 1,2-Dideoxy-1-[4-(2-fluorophenyl)-1H-1,2,3-triazol-1-yl]-β-D-galactoheptulose], the Kd at Human galectin-1 [1] is 390 ± 38 µM; on galectin-3 [2] it was 500 ± 23 µM. Moreover, on Human galectin-1 [1] (setting [5]), the “Selectivity Galectin-1/3” value turned out to be 1.3.
In the case of `OC[C@H]1O[C@H](Cn2cc(-c3ccc4ccccc4c3)nn2)[C@H](O)[C@@H](O)[C@H]1O` [1n, 1,2-Dideoxy-1-(4-naphth-2-yl-1H-1,2,3-triazol-1-yl)-β-D-galactoheptulose], the dissociation constant Kd amounted to 1500 ± 290 µM at Human galectin-1 [1] and 1700 ± 190 µM on galectin-3 [2]. Besides, the “Selectivity Galectin-1/3” value on Human galectin-1 [1] (setting [5]) is given as 1.1.
On to `OC[C@H]1O[C@H](Cn2cc(-c3cccc(F)c3)nn2)[C@H](O)[C@@H](O)[C@H]1O` [1c, 1,2-Dideoxy-1-[4-(3-fluorophenyl)-1H-1,2,3-triazol-1-yl]-β-D-galactoheptulose], for which the Kd on Human galectin-1 [1] came to 1200 ± 120 µM; on galectin-3 [2], 720 ± 64 µM. The “Selectivity Galectin-1/3” value on Human galectin-1 [1] (setting [5]) turned out to be 0.6.
Consider `CO[C@@H]1O[C@H](CO)[C@@H](O[C@@H]2O[C@H](CO)[C@H](O)[C@H](O)[C@H]2O)[C@H](O)[C@H]1O` [compound 12, methyl β-lactoside], for which the “Selectivity Galectin-1/3” value at Human galectin-1 [1] (reference compounds, ratio from KD values of ref 35) is given as 1.2. Besides, the Kd is 190 µM on Human galectin-1 [3] and 220 µM on galectin-3 [4].
For the compound `Cc1ccc(-c2cn(C[C@H]3O[C@H](CO)[C@H](O)[C@H](O)[C@H]3O)nn2)cc1` [1h, 1,2-Dideoxy-1-[4-(4-methylphenyl)-1H-1,2,3-triazol-1-yl]-β-D-galactoheptulose], the Kd on Human galectin-1 [1] worked out at 1000 ± 130 µM. For the same compound, on Human galectin-1 [1] (setting [5]), the “Selectivity Galectin-1/3” value was above 3. Besides, at galectin-3 [2], the “Dissociation constant KD ± SEM, galectin-3” value is given as “undetectable” and the Kd is above 3000 µM.
Consider `Cc1cccc(-c2cn(C[C@H]3O[C@H](CO)[C@H](O)[C@H](O)[C@H]3O)nn2)c1` [1i, 1,2-Dideoxy-1-[4-(3-methylphenyl)-1H-1,2,3-triazol-1-yl]-β-D-galactoheptulose], for which the Kd on Human galectin-1 [1] was found to be 990 ± 23 µM. Further, the “Selectivity Galectin-1/3” value at Human galectin-1 [1] (setting [5]) was above 3. In addition, at galectin-3 [2], the “Dissociation constant KD ± SEM, galectin-3” value is given as “undetectable” and the Kd was above 3000 µM.
Consider `OC[C@H]1O[C@H](Cn2cc(-c3ccccc3)nn2)[C@H](O)[C@@H](O)[C@H]1O` [1a, 1,2-Dideoxy-1-(4-phenyl-1H-1,2,3-triazol-1-yl)-β-D-galactoheptulose], for which the Kd on Human galectin-1 [1] came out at 600 ± 48 µM; on galectin-3 [2] it was 870 ± 37 µM. In addition, the “Selectivity Galectin-1/3” value on Human galectin-1 [1] (setting [5]) is on record as 1.5.
For the compound `OC[C@H]1O[C@H](Cn2cc(-c3ccc(C(F)(F)F)cc3)nn2)[C@H](O)[C@@H](O)[C@H]1O` [1k, 1,2-Dideoxy-1-[4-(4-trifluoromethylphenyl)-1H-1,2,3-triazol-1-yl]-β-D-galactoheptulose], the values for the dissociation constant Kd on Human galectin-1 [1] and at galectin-3 [2] were 240 ± 61 µM and 830 ± 38 µM, respectively. The “Selectivity Galectin-1/3” value at Human galectin-1 [1] (setting [5]) was found to be 3.5.
For the compound `OC[C@H]1O[C@H](Cn2cc(-c3cccc4ccccc34)nn2)[C@H](O)[C@@H](O)[C@H]1O` [1l, 1,2-Dideoxy-1-(4-naphth-1-yl-1H-1,2,3-triazol-1-yl)-β-D-galactoheptulose], the Kd on Human galectin-1 [1] is 180 ± 20 µM; at galectin-3 [2], 470 ± 95 µM. On Human galectin-1 [1] (setting [5]), the “Selectivity Galectin-1/3” value is on record as 2.6.
On to `OC[C@H]1O[C@H](Cn2cc(-c3ccc(F)cc3)nn2)[C@H](O)[C@@H](O)[C@H]1O` [1b, 1,2-Dideoxy-1-[4-(4-fluorophenyl)-1H-1,2,3-triazol-1-yl]-β-D-galactoheptulose], for which the figures for the Kd on Human galectin-1 [1] and at galectin-3 [2] were 170 ± 2 µM and 710 ± 36 µM, respectively. The “Selectivity Galectin-1/3” value on Human galectin-1 [1] (setting [5]) is 4 and 4.2.
